Measurements taken from patent US9120762B2, “Salts of bicyclo-substituted pyrazolon azo derivatives, preparation method and use thereof” (Jiangsu Hengrui Medicine Co., Ltd., priority 2009, dated 2015).

Columns and labels:
human TPOR = target: T1, human TPOR (Homo sapiens, UniProt P40238); assay: Proliferation effect on BAF3-TPOR cell (CCK-8); assay type: cell-based; conditions: rate relative to rhTPO positive control
T1 construct: host or cells: BaF3 (murine pro-B cells), stably transfected, G418-selected
T1 sequence (P40238 26-635): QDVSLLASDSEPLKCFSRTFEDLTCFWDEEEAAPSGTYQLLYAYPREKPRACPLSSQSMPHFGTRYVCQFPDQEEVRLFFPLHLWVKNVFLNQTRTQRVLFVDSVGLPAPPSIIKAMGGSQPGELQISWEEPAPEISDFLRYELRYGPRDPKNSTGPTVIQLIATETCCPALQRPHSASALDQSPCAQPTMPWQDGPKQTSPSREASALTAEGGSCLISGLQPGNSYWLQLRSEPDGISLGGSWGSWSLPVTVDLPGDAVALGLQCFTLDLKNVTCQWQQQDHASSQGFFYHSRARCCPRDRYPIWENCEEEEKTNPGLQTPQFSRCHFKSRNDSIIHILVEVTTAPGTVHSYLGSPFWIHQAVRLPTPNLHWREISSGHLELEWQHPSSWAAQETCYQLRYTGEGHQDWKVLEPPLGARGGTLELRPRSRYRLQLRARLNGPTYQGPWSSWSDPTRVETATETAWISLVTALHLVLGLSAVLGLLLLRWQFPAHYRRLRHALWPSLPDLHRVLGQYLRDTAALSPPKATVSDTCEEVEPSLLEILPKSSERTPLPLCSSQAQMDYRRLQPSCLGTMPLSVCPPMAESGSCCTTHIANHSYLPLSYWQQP
Procedure, shortened: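 BaF3 cells stably expressing dual-site-mutated human TPOR were washed free of IL-3 and plated at 100,000 cells/mL with test solutions of 0.001–30 μM, then incubated 24 h at 37 °C. After a further 24 h with CCK-8, OD450 was read. Proliferation = (S−B)/(P−B) against a rhTPO control, fitted for EC50.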

[1] = Pharmacokinetics assay in rats; assay type: in vivo, SD rats
Procedure, shortened: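 SD rats, half male and half female, dosed intragastrically with compound suspended at 5 mg/mL (as free acid) in 1% sodium carboxymethyl cellulose; fed 2 h post-dose. Plasma concentrations over time were measured by HPLC-UV. Parameters came from a compartmental fit, with Cmax and tmax as observed values.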

[2] = SD rats, intragastric, 50 mg/Kg (as free acid), 50 mg/kg

SMILES | EC50 (human TPOR) [nM] | Vd/F ([1]; both sexes, SD, rat, plasma, po, 50 mg/kg, SD rats, intragastric, 50 mg/Kg (as free acid), read-out: Apparent Distribution Volume Vz/F) [L/kg] | AUC ([1]; both sexes, SD, rat, plasma, po, 50 mg/kg, SD rats, intragastric, 50 mg/Kg (as free acid), read-out: Area Under Curve AUC) [µg·h/mL] | CL/F ([1]; both sexes, SD, rat, plasma, po, 50 mg/kg, SD rats, intragastric, 50 mg/Kg (as free acid), read-out: Clearance CL/F (converted)) [mL/min/kg] | half-life ([1]; both sexes, SD, rat, plasma, po, 50 mg/kg, SD rats, intragastric, 50 mg/Kg (as free acid), read-out: Half-Life t½ (converted)) [h] | MRT ([1]; both sexes, SD, rat, plasma, po, 50 mg/kg, SD rats, intragastric, 50 mg/Kg (as free acid), read-out: Mean Residence Time MRT) [h] | Cmax ([1]; both sexes, SD, rat, plasma, po, 50 mg/kg, SD rats, intragastric, 50 mg/Kg (as free acid), read-out: Plasma Conc. Cmax) [µg/mL] | Tmax ([1]; both sexes, SD, rat, plasma, po, 50 mg/kg, SD rats, intragastric, 50 mg/Kg (as free acid), read-out: Time to peak Tmax) [h] | pharmacokinetics and bioavailability, in words ([1]; rats, comparing to the free acid) | Area Under Curve AUC [1, 2] [µg·h/mL] | Clearance CL/F [1, 2] [mL/min/kg] | Half-Life t½ [1, 2] [h] | Plasma Conc. Cmax [1, 2] [µg/mL] | Time to peak Tmax [1, 2] [h]
CC1=NN(c2ccc3c(c2)CCCC3)C(=O)/C1=N\Nc1cccc(-c2ccc(C(=O)O)o2)c1O.NCCO.NCCO [Example 7, (Z)-5-(2-hydroxy-3-{N′-[3-methyl-5-oxo-1-(5,6,7,8-tetrahydro-naphthalen-2-yl)-1,5-dihydro-pyrazol-4-ylidene]-hydrazino}-phenyl)-furan-2-carboxylic acid bis-(ethanolamine)] | 19 | 2.48 ± 0.92 | 469 ± 274 | 2.92 | 13.9 ± 6.07 | 13.3 ± 5.12 | 74.1 ± 34.5 | 1.75 ± 0.5 | good pharmacokinetic characteristics |  |  |  |  | 
CC1=NN(c2ccc3c(c2)CCCC3)C(=O)/C1=N\Nc1cccc(-c2ccc(C(=O)O)o2)c1O [Example 8, (Z)-5-(2-hydroxy-3-{N′-[3-methyl-5-oxo-1-(5,6,7,8-tetrahydro-naphthalen-2-yl)-1,5-dihydro-pyrazol-4-ylidene]-hydrazino}-phenyl)-furan-2-carboxylic acid bis-(choline)] | 4.4 |  |  |  |  |  |  |  |  | 352 ± 586 | 15.4 ± 16.88 | 10.6 ± 9.02 | 36.2 ± 46.2 | 1.38 ± 1.11
CC1=NN(c2ccc3c(c2)CCCC3)C(=O)/C1=N\Nc1cccc(-c2ccc(C(=O)O)o2)c1O [Example 12, (Z)-5-(2-hydroxy-3-{N′-[3-methyl-5-oxo-1-(5,6,7,8-tetrahydro-naphthalen-2-yl)-1,5-dihydro-pyrazol-4-ylidene]-hydrazino}-phenyl)-furan-2-carboxylic acid bis-(trometamol)] | 14 |  |  |  |  |  |  |  |  | 58.5 ± 23.8 | 16.7 ± 8.4 | 5.1 ± 2.41 | 17.8 ± 10.3 | 1.38 ± 1.11
